Patent publication US20120214830A1, “BIOLOGICAL MARKERS PREDICTIVE OF ANTI-CANCER RESPONSE TO INSULIN-LIKE GROWTH FACTOR-1 RECEPTOR KINASE INHIBITORS IN HEPATOCELLULAR CARCINOMA” (OSI Pharmaceuticals, LLC, priority 2011, published 2012)

Columns and labels:
Experiment in all cases: Cell Titer-Glo proliferation assay, 72 h
Type in all cases: cell-based
[1] = system: SNU-182; settings: Homo sapiens, SNU-182 cells
Protocol: (§1) Cell lines: Twenty-one HCC cell lines were purchased from either ATCC (HepG2, Hep3B, PLC/PRF/5, SK-Hepl, SNU-182, SNU-387, SNU-398, SNU-423, SNU-449, SNU-475) or Health Science Research Resources Bank (Japan) (HUH-1, HUH-6, HUH-7, HLE, HLF, JHH-1, JHH-2, JHH-4, JHH-5, JHH-6, JHH-7). All the cell lines were maintained in media as described by the vendors. For growth inhibition assays, cells were plated and allowed to proliferate for 24 hours. After 24 hours, cells had reached approximately 15% confluency, at which time serial dilutions of OSI-906 were added and the cells grown for a further 72 hours. Cell viability was assayed using the Cell Titer-Glo reagent (Promega Corp., Madison, Wis.). Proliferation Assay. Proliferation was assayed using Cell Titer Glo assays (Promega) and was determined 72 hours following dosing with OSI-906. The basis of the assay is a luminescent quantitation of ATP present in a cell culture plate well. In essence, the greater the number of viable cells in the well, the greater the level of ATP present. The assay utilizes a substrate that binds ATP to produce a luminescent signal, which can be read on a luminometer. Unless otherwise noted, the manufacturer's instructions were followed exactly. Briefly, on Day 1, cells were plated in […] of 10% serum-containing growth media at a density of 4000 cells/well in a white polystyrene 96 well assay plate. On day 2, cells were treated with 15 μl of 10× concentration of the IGF-1R inhibitor (e.g. OSI-906) or DMSO alone for a final well volume of 150 μl. After 72 h incubation with the inhibitor, the cells were assayed. Results were calculated as a fraction of the DMSO controlled cells.

[2] = system: PLC/PRF/5; settings: Homo sapiens, PLC/PRF/5 cells
Protocol: as §1

[3] = system: SNU-387; settings: Homo sapiens, SNU-387 cells
Protocol: as §1

[4] = system: JHH-4; settings: Homo sapiens, JHH-4 cells
Protocol: as §1

[5] = system: SNU-398; settings: Homo sapiens, SNU-398 cells
Protocol: as §1

[6] = system: SNU-423; settings: Homo sapiens, SNU-423 cells
Protocol: as §1

[7] = system: JHH-5; settings: Homo sapiens, JHH-5 cells
Protocol: as §1

[8] = system: JHH-2; settings: Homo sapiens, JHH-2 cells
Protocol: as §1

[9] = system: SNU-475; settings: Homo sapiens, SNU-475 cells
Protocol: as §1

[10] = system: SK Hep-1; settings: Homo sapiens, SK-HEP1, SK Hep-1 cells
Protocol: as §1

[11] = system: JHH-6; settings: Homo sapiens, JHH-6 cells
Protocol: as §1

[12] = system: Hep G2; settings: Homo sapiens, HepG2, Hep G2 cells
Protocol: as §1

[13] = system: Huh-7; settings: Homo sapiens, Huh-7 cells
Protocol: as §1

[14] = system: Huh-1; settings: Homo sapiens, Huh-1 cells
Protocol: as §1

[15] = system: SNU-449; settings: Homo sapiens, SNU-449 cells
Protocol: as §1

[16] = system: HLE; settings: Homo sapiens, HLE cells
Protocol: as §1

- EC50 ([1]; 72 h OSI-906): > 10 µM
- EC50 ([3]; 72 h OSI-906): > 10 µM
- EC50 ([5]; 72 h OSI-906): > 10 µM
- EC50 ([6]; 72 h OSI-906): > 10 µM
- EC50 ([9]; 72 h OSI-906): > 10 µM
- EC50 ([13]; 72 h OSI-906): 0.37 µM
- EC50 ([14]; 72 h OSI-906): 0.18 µM
- EC50 ([15]; 72 h OSI-906): > 10 µM
SMILES: C[C@]1(O)C[C@@H](c2nc(-c3ccc4ccc(-c5ccccc5)nc4c3)c3c(N)nccn32)C1 [OSI-906, cis-3-[8-amino-1-(2-phenyl-quinolin-7-yl)-imidazo[1,5-a]pyrazin-3-yl]-1-methyl-cyclobutanol]
- inhibition at 5 µM ([1]; 5 μM OSI-906, 72 h): < 40%
- inhibition at 5 µM ([2]; 5 μM OSI-906, 72 h): < 40%
- EC50 ([2]; 72 h OSI-906): > 10 µM
- inhibition at 5 µM ([3]; 5 μM OSI-906, 72 h): < 40%
- inhibition at 5 µM ([4]; 5 μM OSI-906, 72 h): < 40%
- EC50 ([4]; 72 h OSI-906): > 10 µM
- inhibition at 5 µM ([5]; 5 μM OSI-906, 72 h): < 40%
- inhibition at 5 µM ([6]; 5 μM OSI-906, 72 h): < 40%
- inhibition at 5 µM ([7]; 5 μM OSI-906, 72 h): 80%
- EC50 ([7]; 72 h OSI-906): 0.19 µM
- inhibition at 5 µM ([8]; 5 μM OSI-906, 72 h): < 40%
- EC50 ([8]; 72 h OSI-906): > 10 µM
- inhibition at 5 µM ([9]; 5 μM OSI-906, 72 h): < 40%
- inhibition at 5 µM ([10]; 5 μM OSI-906, 72 h): < 40%
- EC50 ([10]; 72 h OSI-906): > 10 µM
- inhibition at 5 µM ([11]; 5 μM OSI-906, 72 h): < 40%
- EC50 ([11]; 72 h OSI-906): > 10 µM
- inhibition at 5 µM ([12]; 5 μM OSI-906, 72 h): 77%
- EC50 ([12]; 72 h OSI-906): 0.22 µM
- inhibition at 5 µM ([13]; 5 μM OSI-906, 72 h): 70%
- inhibition at 5 µM ([14]; 5 μM OSI-906, 72 h): 74%
- inhibition at 5 µM ([15]; 5 μM OSI-906, 72 h): < 40%
- inhibition at 5 µM ([16]; 5 μM OSI-906, 72 h): < 40%
- EC50 ([16]; 72 h OSI-906): > 10 µM
